Patent US10203330B2, “Methods and materials for identifying and treating mammals having lung adenocarcinoma characterized by neuroendocrine differentiation” (Mayo Foundation for Medical Education and Research, priority 2013, dated 2019)
Entries after “also recorded” stand apart in the source; their conditions may differ.

How the values were obtained:
Assay type in all cases: cell-based
[1] = tested on: HCC1833 cells; assay: Filling the gap scratch assay; settings: HCC1833 cells transfected with ASCL1 shRNA versus wild-type and control vector cells, day 3, FIG. 14; listed as ASCL1-sh2
Text: FIG. 14 contains photographs of cells from a filling the gap scratch assay (see, e.g., Liang et al., Nature Protocols, 2:329-333 (2007)).
(§1) The HCC1833 adenocarcinoma cell line expressed high endogenous levels of ASCL1 and RET (FIG. 13, left). […] In addition, STAT3 expression (in JAK/STAT3 pathway) went down.

[2] = tested on: ASCL1; assay: ASCL1 knock down in HCC1833 cells, ASCL1 and RET expression; settings: HCC1833 cells transfected with the construct, FIG. 13 left
Text: Two cell lines are used to confirm the effectiveness of drugs for treating lung adenocarcinoma characterized by neuroendocrine differentiation. The first is the HCC1833 cell line, which was derived from lung AD and has high expression levels of ASCL1 and RET. The second in the A549 cell line which has low endogenous expression of ASCL1 and is stably transfected with ASCL1 (A549-As^+). A549-As^+ captures salient features of ASCL1^+ lung AD from patients, including increased expression of RET. HCC1833 are stably transfected with ASCL1 siRNA to knock down ASCL1 and produce a HCC1833-AsKD cell line. Lowering ASCL1 expression leads to low levels of RET expression.
as §1

[3] = tested on: A549 cells and A549-ASCL1 cells; assay: Clonogenic number of A549 and A549-ASCL1 cells after cisplatin treatment; settings: ASCL1 over-expressing cells versus cells not expressing ASCL1; 0, 3 or 9 μM cisplatin for 14 days, FIG. 15

Molecule | ability to fill the gap (migration capacity) [1] | ASCL1 expression [2] | RET expression [2] | remaining clonogenic potential after cisplatin treatment [3]
sh2: a small interfering RNA construct that includes: CAACCGCGTCAAGTTGGTCAA (SEQ ID NO:2) (listed as DNA, chemistry not given here) | much slower ability to filling the gap; also recorded: did not fill as much of the gap | reduced ASCL1 expression | reduced | 
N.N.[Cl][Pt][Cl] [cisplatin] |  |  |  | higher than in cells that did not express ASCL1
sh1: a small interfering RNA construct that includes: GCCAACAAGAAGATGAGTAAG (SEQ ID NO: 1) (listed as DNA, chemistry not given here) |  | reduced ASCL1 expression | reduced | 
